Patent US20250368683A1, “METHOD FOR TREATING OR PREVENTING BRONCHIAL ALLERGIC DISEASES WITH PEPTIDE COMPOSITION” (Greenyn Biotechnology Co., Ltd, priority 2024, published 2025)

What was measured:
Format in all cases: cell-based, mouse
[1] = test system: IL-4; experiment: Cell test: IL-4 secretion by P815 cells stimulated with compound 48/80 (ELISA); design: unit not given here; details: 20 minutes pre-incubation with polypeptide, then compound 48/80, total 6 hours, supernatant ELISA
Protocol: (§1) In this example, the cell line used was the P815 mouse mastocytoma cell line, and the allergen was compound 48/80. To start with, each of the polypeptides represented by SEQ ID No. 1-10 was co-cultured with the P815 cells for 20 minutes, was then added with compound 48/80, and then continued co-culturing for a total of 6 hours. When the culturing process was completed, the supernatants were collected, and the amounts of IL-4 and IL-13 secretions were analyzed by enzyme-linked immunosorbent assay (ELISA), with the results shown in FIG. 1 and Table 2.

[2] = test system: IL-13; experiment: Cell test: IL-13 secretion by P815 cells stimulated with compound 48/80 (ELISA); design: IL-13 inhibitory activity: unit not given here; details: for IL-13 inhibitory activity: 20 minutes pre-incubation with polypeptide, then compound 48/80, total 6 hours, supernatant ELISA; for IL-13 inhibitory activity (in words): compound 48/80
Protocol: as §1

[3] = test system: Th2 pathway; experiment: Cell test: overall inhibitory activity on the Th2 pathway (IL-4 and IL-13, P815 cells); details: all in all, from IL-4 and IL-13 results in P815 cells
Protocol: as §1
It can be known from the results in FIG. 1 and Table 2 that the polypeptides represented by SEQ ID No. 1-10 had IL-4 inhibitory activity; that the polypeptides represented by SEQ ID NO.

Sequence | IL-4 inhibitory activity [1] | IL-13 inhibitory activity [2] | IL-13 inhibitory activity (in words) [2] | inhibitory activity on the Th2 pathway (in words) [3]
ALYPLLTTLTD [SEQ ID No. 5] | −13.1 | −71.4 | had IL-13 inhibitory activity | 
GHCGCSSG [SEQ ID No. 8] | −38.5 | 0.0 |  | relatively good inhibitory activity
IGVDEHYTPI [SEQ ID No. 10] | −7.2 | 0.0 |  | 
INFVTEEDKR [SEQ ID No. 1] | −25.2 | 0.0 |  | 
LGVTNINISDP [SEQ ID No. 2] | −16.0 | 0.0 |  | 
LVGTDVATAQAP [SEQ ID No. 7] | −23.9 | 0.0 |  | 
NFIVTGLQDIM [SEQ ID No. 9] | −11.5 | −57.1 | had IL-13 inhibitory activity | relatively good inhibitory activity
RLTDYFTID [SEQ ID No. 3] | −8.9 | 0.0 |  | 
SMNLSLVLQVV [SEQ ID No. 4] | −32.9 | −21.4 | had IL-13 inhibitory activity | relatively good inhibitory activity
VRYLEWSNIESIIA [SEQ ID No. 6] | −22.2 | −60.7 |  | relatively good inhibitory activity
